Laboratory results published in patent US10358419B2, “1,3-dipolar [70]fulleropyrrolidinium iodide derivatives” (priority 2015, dated 2019).

Legend:
[1] = system: VSV-G pseudotyped HIV-1 luciferase reporter virus (HIVluc); format: cell-based
[2] = system: HIV-1NL4-3; assay: HIV-1 NL4-3 replication assay in SupT1 cells (p24 ELISA)
[3] = target: recombinant HIV-1 protease (Human immunodeficiency virus type 1 group M subtype B, UniProt P03366); assay: HIV-1 protease in vitro activity assay (FRET peptide)
[4] = Solubility (UV-vis spectroscopy, solvents); details: saturated solutions

Row | Compound | reduction of infectivity / inhibition [1] | Effect on HIV-1 replication (FIG. 9C) ([2]; 3 μM at time of infection, washed after 24 h) | Effect on HIV-1NL4-3 replication (FIG. 3) ([2]; 6 μM for 24 hrs, given 24 hours after infection, p24 followed seven additional days) | Effect on HIV-1 infectivity (FIG. 1) [1] | infectivity as compared to control (100%) infectivity [1] | inhibition of protease activity ([3]; at 80 μM) | inhibition of protease activity ([3]; at 40 (unit not given)) | solubility in H2O:DMSO (9:1) [4]
1 | CC(C)(C)NC(=O)[C@@H]1CN(Cc2cccnc2)CCN1C[C@@H](O)C[C@@H](Cc1ccccc1)C(=O)N[C@H]1c2ccccc2C[C@H]1O [Indinavir, reference compound] | 96.6% |  |  |  |  |  |  | 
2 | mixture of α, β and γ-N—N-dimethyl[70]fulleropyrrolidinium iodide [Compound 2a] | 72% | potent inhibitory effect | able to impair viral replication | potently blocked the infectivity of HIV-1 | 0.026% |  |  | 
3 | α-N,N-dimethyl[70]fulleropyrrolidinium iodide [Compound 2b] | 52% |  |  | potently blocked the infectivity of HIV-1 | 0.047% | 65% | 24% | 
4 | β-N,N-dimethyl[70]fulleropyrrolidinium iodide [Compound 2c] | 71% |  |  | potently blocked the infectivity of HIV-1 | 0.003% |  |  | 0.252 nM
